Format in all cases: in vivo
For one test, the system named is Wistar male rats. The experiment in a line: Flexor reflex in spinalized rats. The settings on record: intravenous; for Area below the reflex amplitude linking line: covering 60 minutes; for response vs control in vivo at 0.1 mg/kg / response vs control in vivo at 0.3 mg/kg: Rattus norvegicus; for response vs control in vivo at 0.1 mg/kg / response vs control in vivo at 0.3 mg/kg / Reflex amplitude (%) 10 min. after / Reflex amplitude (%) 60 min. after: pre-dose mean = 100%. How it is done:
Wistar male rats (weighing 450-520 g) were anesthetized with ether, and the cervical part of […] was exposed, into which a tracheal cannula was inserted. The vagus nerves were severed bilaterally at the cervical region. Thereafter, the cervical vertebra C1 segment was transected, and rapidly, artificial ventilation was given with the use of an artificial respirator (Shinano Factory 60 rpm. 4 ml/stroke). The rat was placed on a thermostated apparatus in which water thermostated at 37° C. was circulated and fixed thereto at forelimbs, right hindlimb, tooth and tail. A venous cannula was inserted into the femoral vein in the right hindlimb and two needle electrodes were subcutaneously inserted into the left skin of the toe, and a piece of thread was attached to the limb with the edge of the thread bonded to a force-displacement transducer. Tension of about 5 g was applied to the thread. Through the electrodes, electric stimuli of 50-100 V were applied once per 30 seconds. The flexor reflex was recorded on the polygraph via a force-displacement transducer. After the reaction became constant in about one-hours' lapse for stabilization, the test compound dissolved in saline was intravenously administered. Thereafter, the reaction was recorded for 1 hour. In the data, taking the mean of the three reactions just before administration of the test compound for 100%, the reflex amplitude at 1-, 3-, 5-, 8-, 10-, 15-, 20-, 30-, 40-, 50- and 60-minutes' lapse after administration of the test compound were calculated. In Table 3, there are shown calculated area below the straight line linking the obtained reflex amplitude at the respective above-mentioned time covering 60 […], and the reflex amplitude at 10- and 60-minutes' lapse after administration (Table 3).

The subject of test [1] is ICR male mice. The experiment in a line: Anti-chlorpromazine action (locomotor stimulant action). The settings on record: SC, mice given chlorpromazine.HCl 5 mg/kg s.c. one hour before, from regression line; for ED (3000 locomotor counts): Mus musculus, 2 h, read-out: Concentration of test compound necessary for inducing 3000 count of automatism quantity in 2 hours. How it is done: ICR male mice weighing 35-40 g (four animals per group) were subcutaneously administered with chlorpromazine.HCl at the dose of 5 mg/kg and immediately set in the automatic locomotor-measuring apparatus (AUTOMEX). One hour later, the test compound dissolved in saline was subcutaneously administered, and the locomotor activity was measured every 15 minutes for 120 minutes. The total locomotor activity during the period of 120 minutes was calculated and the regression line was estimated based on the method of least squares, from which the amount of the test compound necessary for inducing 3000 locomotor-count was estimated (Table 2).

Test [2] concerns ICR male mice. The experiment in a line: Anti-reserpine action (antagonistic action against hypothermia). Particulars: SC, mice given reserpine 5 mg/kg s.c. 3 or 3.5 hours before, from regression line; for ED (1 degC rise in body temperature): Mus musculus, 2 h, read-out: Concentration of test compound necessary for raising body temperature by 1° C. on the average for 120 minutes. As for the experimental part: ICR male mice weighing 35-40 g were subcutaneously administered with reserpine at the dose of 5 mg/kg. About 2 hours later, each of the mice was held by a mouse-holder, and a body temperature sensor was intrarectally inserted. Thereafter, the body temperature was automatically measured every 10 minutes. The test compound dissolved in saline was subcutaneously administered 3 or 3.5 hours after administration of reserpine. After the administration of the test compound, the body temperature was measured every 10 minutes over the period of 120 minutes. The area below the body temperature line during the period was calculated, from which the regression line was estimated based upon least square method, and estimated was the amount of the test compound necessary for raising the body temperature by 1° C. on the average for 120 minutes from that just before the administration of the test compound (Table 1).

Where [3] appears, read: 1 h, 0.1 mg/kg, read-out: Reflex amplitude (%) 60 min. after.
Setting [4] is: 1 h, 0.3 mg/kg (footnote *), read-out: Reflex amplitude (%) 60 min. after.
[5] abbreviates: 10 min, 0.1 mg/kg, read-out: Reflex amplitude (%) 10 min. after.
Setting [6] is: 10 min, 0.3 mg/kg (footnote *), read-out: Reflex amplitude (%) 10 min. after.

Like-named read-outs stand apart in the source and are kept apart here.

As to `NC(=O)[C@@H]1CCCN1C(=O)[C@H](Cc1ccccc1)NC(=O)[C@@H]1CCC(=O)C1` [Compound 37, N-[(1R)-3-oxocyclopentanecarbonyl]-L-phenylalanyl-L-prolinamide], the “Area below the reflex amplitude linking line” value in the test on Wistar male rats (0.3 mg/kg (footnote *)) was 5868.

`CC1(C)CC(=O)CC1C(=O)N[C@@H](Cc1c[nH]cn1)C(=O)N1CCC[C@H]1C(N)=O` (stereo partly drawn) [Compound 21, N^α -(2,2-Dimethyl-4-oxocyclopentanecarbonyl)-L-histidyl-L-prolinamide]: in the test on Wistar male rats (setting [3]), the response vs control in vivo at 0.1 mg/kg turned out to be 145%. For the same compound, the response vs control in vivo at 0.3 mg/kg with Wistar male rats (setting [4]) amounted to 274%.

As for `C[C@@H]1CC(=O)N[C@@H]1C(=O)N[C@@H](Cc1cnc[nH]1)C(=O)N1CSC[C@H]1C(N)=O` (relative stereo) [Compound 3, 3-[N^α -(cis-3-Methylpyroglutamyl)-L-histidyl]-L-thiazolidine-4-carboxamide], in the test on Wistar male rats (0.1 mg/kg), the “Area below the reflex amplitude linking line” value came to 13811, the “Reflex amplitude (%) 10 min. after” value turned out to be 190.5% and the “Reflex amplitude (%) 60 min. after” value turned out to be 277.6%. The “Concentration of test compound necessary for inducing 3000 count of automatism quantity in 2 hours” value (from here on “Concentration … in 2 hours”) in the test with ICR male mice [1] is on record as 0.47 mg/kg. Further, the “Concentration of test compound necessary for raising body temperature by 1° C. on the average for 120 minutes” value (shortened to “Concentration … for 120 minutes”) in the test on ICR male mice [2] is 0.20 mg/kg.

In the case of `C[C@H]1CC(=O)N[C@@H]1C(=O)N[C@@H](Cc1c[nH]cn1)C(=O)N1CCC[C@H]1C(N)=O` [Compound 2, N^α -(trans-3-Methylpyroglutamyl)-L-histidyl-L-prolinamide], the response vs control in vivo at 0.1 mg/kg in the test with Wistar male rats (setting [3]) turned out to be 107%.

For the compound `CCCC[C@H](NC(=O)[C@H]1NC(=O)C[C@H]1C)C(=O)N1CCC[C@H]1C(N)=O` [Compound 31A, N-(cis-3-Methylpyroglutamyl)-L-norleucyl-L-prolinamide], the response vs control in vivo at 0.1 mg/kg in the test with Wistar male rats (setting [5]) amounted to 130%; with Wistar male rats (setting [3]) it was 129%. In the test with Wistar male rats (0.1 mg/kg), the “Area below the reflex amplitude linking line” value is 8126.

`C[C@@H]1CC(=O)C[C@H]1C(=O)N[C@@H](Cc1c[nH]cn1)C(=O)N1CCC[C@H]1C(N)=O` (mixture of isomers) [Compound 20, N^α -(trans-2-Methyl-4-oxocyclopentanecarbonyl)-L-histidyl-L-prolinamide]: in the test with Wistar male rats (setting [3]), the response vs control in vivo at 0.1 mg/kg is 107%. For the same compound, in the test with Wistar male rats (setting [4]), the response vs control in vivo at 0.3 mg/kg came out at 223%.

For `CCC[C@H](NC(=O)[C@H]1NC(=O)C[C@H]1C)C(=O)N1CCC[C@H]1C(N)=O` [Compound 29A, N-(cis-3-Methylpyroglutamyl)-L-norvalyl-L-prolinamide], the response vs control in vivo at 0.3 mg/kg in the test on Wistar male rats (setting [6]) turned out to be 124%; in the test on Wistar male rats (setting [4]) it was 121%. Also, the “Area below the reflex amplitude linking line” value with Wistar male rats (0.3 mg/kg (footnote *)) stood at 7063.

In the case of `C[C@H]1CC(=O)C[C@H]1C(=O)N[C@@H](Cc1c[nH]cn1)C(=O)N1CCC[C@H]1C(N)=O` (mixture of isomers) [Compound 19, N^α -(cis-2-Methyl-4-oxocyclopentanecarbonyl)-L-histidyl-L-prolinamide], in the test with Wistar male rats (setting [3]), the response vs control in vivo at 0.1 mg/kg amounted to 246%. Moreover, in the test with Wistar male rats (setting [4]), the response vs control in vivo at 0.3 mg/kg was 340%.

Consider `CCC[C@H](NC(=O)[C@H]1NC(=O)CC1(C)C)C(=O)N1CCC[C@H]1C(N)=O` [Compound 33A, N-(3,3-Dimethylpyroglutamyl)-L-norvalyl-L-prolinamide], for which the response vs control in vivo at 0.3 mg/kg with Wistar male rats (setting [6]) was 119%; in the test on Wistar male rats (setting [4]), 120%. For the same compound, the “Area below the reflex amplitude linking line” value in the test on Wistar male rats (0.3 mg/kg (footnote *)) is listed as 7172.

With `C[C@H]1CC(=O)N[C@@H]1C(=O)N[C@@H](Cc1c[nH]cn1)C(=O)N1CSC[C@H]1C(N)=O` (relative stereo) [Compound 4, 3-[N^α -(trans-3-Methylpyroglutamyl)-L-histidyl]-L-thiazolidine-4-carboxamide], in the test with Wistar male rats (0.1 mg/kg), the “Area below the reflex amplitude linking line” value was determined as 9404, the “Reflex amplitude (%) 10 min. after” value is 142.8% and the “Reflex amplitude (%) 60 min. after” value was 163.9%. Further, the “Concentration … in 2 hours” value in the test with ICR male mice [1] was determined as 0.63 mg/kg. Besides, the “Concentration … for 120 minutes” value in the test with ICR male mice [2] is 0.34 mg/kg.

On to `CSCC[C@H](NC(=O)[C@H]1NC(=O)C[C@H]1C)C(=O)N1CCC[C@H]1C(N)=O` [Compound 28A, N-(cis-3-Methylpyroglutamyl)-L-methionyl-L-prolinamide], for which the response vs control in vivo at 0.1 mg/kg in the test on Wistar male rats (setting [5]) is 125%; in the test on Wistar male rats (setting [3]), 195%. In addition, the “Area below the reflex amplitude linking line” value with Wistar male rats (0.1 mg/kg) is 9188.

In the case of `NC(=O)[C@@H]1CCCN1C(=O)[C@H](Cc1c[nH]cn1)NC(=O)[C@@H]1CCC(=O)C1` [Compound 16, N^α -[(1R)-3-Oxocyclopentanecarbonyl]-L-histidyl-L-prolinamide], the response vs control in vivo at 0.1 mg/kg in the test on Wistar male rats (setting [3]) is 252%.

For `NC(=O)[C@@H]1CCCN1C(=O)[C@H](Cc1c[nH]cn1)NC(=O)C1CCC(=O)C1` (stereo partly drawn) [Compound 13, N^α -(3-Oxocyclopentanecarbonyl)-L-histidyl-L-prolinamide], in the test on Wistar male rats (setting [3]), the response vs control in vivo at 0.1 mg/kg turned out to be 167%.

Turning to `NC(=O)[C@@H]1CCCN1C(=O)[C@H](Cc1c[nH]cn1)NC(=O)[C@H]1NC(=O)C[C@H]1c1ccccc1` [Compound 11, N^α -(cis-3-Phenylpyroglutamyl)-L-histidyl-L-prolinamide], the response vs control in vivo at 0.1 mg/kg in the test with Wistar male rats (setting [5]) was 140%; in the test on Wistar male rats (setting [3]), 241%. Further, the “Area below the reflex amplitude linking line” value in the test on Wistar male rats (0.1 mg/kg) turned out to be 11321. Besides, the ED (3000 locomotor counts) in the test with ICR male mice [1] stood at 1.89 mg/kg. In the test with ICR male mice [2], the ED (1 degC rise in body temperature) amounted to 0.28 mg/kg.

For `C[C@@H]1CC(=O)N[C@@H]1C(=O)N[C@@H](Cc1c[nH]cn1)C(=O)N1CCC[C@H]1C(N)=O` [Compound 1, N^α -(cis-3-Methylpyroglutamyl)-L-histidyl-L-prolinamide], the response vs control in vivo at 0.1 mg/kg in the test with Wistar male rats (setting [3]) turned out to be 298%.

As for `C[C@@H]1CC(=O)O[C@@H]1C(=O)N[C@@H](Cc1c[nH]cn1)C(=O)N1CCC[C@H]1C(N)=O` [Compound 5, N^α -[(2S,3R)-Tetrahydro-3-methyl-5-oxo-2-furancarbonyl]-L-histidyl-L-prolinamide], in the test on Wistar male rats (setting [3]), the response vs control in vivo at 0.1 mg/kg worked out at 168%.

Turning to `CC(C)C[C@H](NC(=O)[C@H]1NC(=O)C[C@H]1C)C(=O)N1CCC[C@H]1C(N)=O` [Compound 27A, N-(cis-3-Methylpyroglutamyl)-L-leucyl-L-prolinamide], the response vs control in vivo at 0.1 mg/kg was 126% with Wistar male rats (setting [5]) and 156% with Wistar male rats (setting [3]). Besides, the “Area below the reflex amplitude linking line” value in the test on Wistar male rats (0.1 mg/kg) is given as 8769.

For the compound `NC(=O)C1CCCN1C(=O)C(Cc1cnc[nH]1)NC(=O)C1CCC(=O)O1` (stereo not shown) [DN1417, reference compound], in the test with Wistar male rats (0.3 mg/kg (footnote *)), the “Area below the reflex amplitude linking line” value is on record as 8152, the “Reflex amplitude (%) 10 min. after” value is recorded as 113.7% and the “Reflex amplitude (%) 60 min. after” value was 162.8%. In addition, in the test on ICR male mice [1], the “Concentration … in 2 hours” value amounted to 4.34 mg/kg. For the same compound, the “Concentration … for 120 minutes” value in the test on ICR male mice [2] came to 2.06 mg/kg.

For the compound `NC(=O)[C@@H]1CCCN1C(=O)[C@H](Cc1c[nH]cn1)NC(=O)[C@@H]1CCC(=O)N1` [TRH, L-pyroglutamyl-L-histidyl-L-prolinamide, reference compound], the response vs control in vivo at 0.1 mg/kg in the test on Wistar male rats (setting [5]) amounted to 118%; in the test on Wistar male rats (setting [3]), 79.3%. Also, in the test with Wistar male rats (0.1 mg/kg), the “Area below the reflex amplitude linking line” value worked out at 6418. In addition, the ED (3000 locomotor counts) in the test on ICR male mice [1] stood at 6.82 mg/kg. Further, the ED (1 degC rise in body temperature) in the test on ICR male mice [2] turned out to be 2.52 mg/kg.

The values above are taken from US5151497A, “Histidyl peptide derivatives” (Japan Tobacco Inc., priority 1990, dated 1992).
